This test concerns the target T1, Recombinant human cathepsin A (Homo sapiens, UniProt P10619).
T1 construct: Recombinant human cathepsin A (residues 29-480, with a C-terminal 10-His tag); 10-His (C); purchased R&D Systems 1049-SE
T1 sequence (P10619 29-326 limits assumed): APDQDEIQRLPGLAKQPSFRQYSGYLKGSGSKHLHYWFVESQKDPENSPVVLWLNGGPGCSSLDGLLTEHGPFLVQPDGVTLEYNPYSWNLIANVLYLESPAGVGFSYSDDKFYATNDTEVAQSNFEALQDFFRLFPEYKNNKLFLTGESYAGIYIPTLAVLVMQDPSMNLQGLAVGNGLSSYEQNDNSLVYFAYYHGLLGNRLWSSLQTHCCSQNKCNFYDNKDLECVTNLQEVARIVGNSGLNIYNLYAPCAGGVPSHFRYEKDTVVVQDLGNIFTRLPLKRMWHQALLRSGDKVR
T1 sequence (P10619 327-480 limits assumed): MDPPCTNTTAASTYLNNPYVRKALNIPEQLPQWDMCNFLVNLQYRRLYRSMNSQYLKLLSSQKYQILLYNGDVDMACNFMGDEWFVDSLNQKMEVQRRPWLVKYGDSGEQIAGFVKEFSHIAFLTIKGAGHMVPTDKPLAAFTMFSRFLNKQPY
As to the kind of experiment: Cathepsin A inhibitory activity. In kind it is biochemical. Conditions: activated recombinant human cathepsin A 833 ng/ml, Bodipy FL-labeled bradykinin 2 μM, pH 5.5, 15 min room temperature. Here is the method:
a) Cathepsin a Inhibitory Activity
Recombinant human cathepsin A (residues 29-480, with a C-terminal 10-His tag; R&D Systems, #1049-SE) was proteolytically activated with recombinant human cathepsin L (R&D Systems, #952-CY). Briefly, cathepsin A was incubated at 10 μg/ml with cathepsin L at 1 μg/ml in activation buffer (25 mM 2-(morpholin-4-yl)-ethanesulfonic acid (MES), pH 6.0, containing 5 mM dithiothreitol (DTT)) for 15 min at 37° C. Cathepsin L activity was then stopped by the addition of the cysteine protease inhibitor E-64 (N-(trans-epoxysuccinyl)-L-leucine-4-guanidinobutylamide; Sigma-Aldrich, #E3132; dissolved in activation buffer/DMSO) to a final concentration of 10 μM.
The activated cathepsin A was diluted in assay buffer (25 mM MES, pH 5.5, containing 5 mM DTT) and mixed with the test compound (dissolved in assay buffer containing (v/v) 3% DMSO) or, in the control experiments, with the vehicle in a multiple assay plate. After incubation for 15 min at room temperature, as substrate then bradykinin carrying an N-Terminal®Bodipy FL (4,4-difluoro-5,7-dimethyl-4-bora-3a,4a-diaza-s-indacene-3-propionyl) label (JPT Peptide Technologies GmbH; dissolved in assay buffer) was added to the mixture. The final concentration of cathepsin A was 833 ng/ml and the final concentration of labeled bradykinin 2 μM. After incubation for 15 min at room temperature the reaction was stopped by the addition of stop buffer (130 mM 2-(4-(2-hydroxy-ethyl)-piperazin-1-yl)-ethanesulfonic acid, pH 7.4, containing (v/v) 0.013%®Triton X-100, 0.13% Coating Reagent 3 (Caliper Life Sciences), 6.5% DMSO and 20 μM ebelactone B (Sigma, #E0886)).
Uncleaved substrate and product were then separated by a microfluidic capillary electrophoresis on a LabChip® 3000 Drug Discovery System (12-Sipper-Chip; Caliper Life Sciences) and quantified by determination of the respective peak areas. Substrate turnover was calculated by dividing product peak area by the sum of substrate and product peak areas, and the enzyme activity and the inhibitory effect of the test compound thus quantified. From the percentage of inhibition of cathepsin A activity observed with the test compound at several concentrations, the inhibitory concentration IC50, i.e. the concentration which effects 50% inhibition of enzyme activity was, calculated.

As for `O=C(O)C[C@H](NC(=O)c1cc(NC(=O)c2ccccc2)n(-c2ccccc2)n1)c1ccccc1F` [Example 83, (S)-3-[(5-Benzoylamino-1-phenyl-1H-pyrazole-3-carbonyl)-amino]-3-(2-fluoro-phenyl)-propionic acid], the IC50 (in general, the point on the concentration scale where inhibition reaches its midpoint) was determined as 147 nM.

For `Nc1cc(C(=O)N[C@@H](CC(=O)O)c2cccc(Cl)c2Cl)nn1-c1ccccc1F` [Example 8, (S)-3-{[5-Amino-1-(2-fluoro-phenyl)-1H-pyrazole-3-carbonyl]-amino}-3-(2,3-dichloro-phenyl)-propionic acid], the IC50 is 23.2 nM.

For the compound `Cc1ccccc1[C@H](CC(=O)O)NC(=O)c1cc(NCC2CC2)n(-c2ccccc2)n1` [Example 50, (S)-3-{[5-(Cyclopropylmethyl-amino)-1-phenyl-1H-pyrazole-3-carbonyl]-amino}-3-o-tolyl-propionic acid], the 50% inhibitory concentration (IC50) amounted to 49 nM.

On to `Cc1ccccc1[C@H](CC(=O)O)NC(=O)c1cc(NC[C@@H](O)C(C)(C)C)n(-c2ccccc2)n1` (single isomer, unassigned) [Example 60], for which the concentration for half-maximal inhibition (IC50) was found to be 11.3 nM.

As for `Cc1ccccc1[C@H](CC(=O)O)NC(=O)c1cc(N2CCCS2(=O)=O)n(-c2ccccc2F)n1` [Example 12, (S)-3-{[5-(1,1-Dioxo-1lambda6-isothiazolidin-2-yl)-1-(2-fluoro-phenyl)-1H-pyrazole-3-carbonyl]-amino}-3-o-tolyl-propionic acid], the half-inhibitory concentration (IC50) came to 13.6 nM.

`Cc1ccc([C@H](CC(=O)O)NC(=O)c2cc(N(C)C(=O)c3ccccc3)n(-c3ccccc3)n2)cc1` [Example 72, (S)-3-{[5-(Benzoyl-methyl-amino)-1-phenyl-1H-pyrazole-3-carbonyl]-amino}-3-p-tolyl-propionic acid]: the 50% inhibitory concentration (IC50) was determined as 102 nM.

Consider `Cc1ccccc1[C@H](CC(=O)O)NC(=O)c1cc(N2CCCC2=O)n(-c2ccccc2)n1` [Example 15, (S)-3-{[5-(2-Oxo-pyrrolidin-1-yl)-1-phenyl-1H-pyrazole-3-carbonyl]-amino}-3-o-tolyl-propionic acid], for which the IC50 stood at 25.5 nM.

As for `Cc1ccc(C(=O)Nc2cc(C(=O)N[C@@H](CC(=O)O)c3ccccc3C)nn2-c2ccccc2)o1` [Example 61, (S)-3-({5-[(5-Methyl-furan-2-carbonyl)-amino]-1-phenyl-1H-pyrazole-3-carbonyl}-amino)-3-o-tolyl-propionic acid], the 50% inhibitory concentration (IC50) turned out to be 62.6 nM.

On to `N#Cc1ccc(C(CC(=O)O)NC(=O)c2cc3[nH]c4ccccc4n3n2)cc1` (centres unmarked) [Example 21, 3-[(4H-Benzo[4,5]imidazo[1,2-b]pyrazole-2-carbonyl)-amino]-3-(4-cyano-phenyl)-propionic acid], for which the half-maximal inhibitory concentration (IC50) turned out to be 2390 nM.

On to `CC(C)(CC(=O)O)NC(=O)c1cc2[nH]c3ccccc3n2n1` [Example 43, 3-[(4H-Benzo[4,5]imidazo[1,2-b]pyrazole-2-carbonyl)-amino]-3-methyl-butyric acid], for which the IC50 was found to be 5180 nM.

For the compound `O=C(O)CC(NC(=O)c1cc2[nH]c3ccccc3n2n1)c1cccc(F)c1` (centres unmarked) [Example 23, 3-[(4H-Benzo[4,5]imidazo[1,2-b]pyrazole-2-carbonyl)-amino]-3-(3-fluoro-phenyl)-propionic acid], the IC50 was 3120 nM.

With `CCNc1cc(C(=O)N[C@@H](CC(=O)O)c2ccccc2C)nn1-c1ccccc1` [Example 85, (S)-3-[(5-Ethylamino-1-phenyl-1H-pyrazole-3-carbonyl)-amino]-3-o-tolyl-propionic acid], the IC50 is 80.2 nM.

`CN(C(=O)c1ccccc1)c1cc(C(=O)N[C@@H](CC(=O)O)c2ccccc2Cl)nn1-c1ccccc1` [Example 70, (S)-3-{[5-(Benzoyl-methyl-amino)-1-phenyl-1H-pyrazole-3-carbonyl]-amino}-3-(2-chloro-phenyl)-propionic acid]: the 50% inhibitory concentration (IC50) stood at 5.7 nM.

In the case of `Cc1ccccc1[C@H](CC(=O)O)NC(=O)c1cc(N2CCCC2)n(-c2ccccc2)n1` [Example 6, (S)-3-[(1-Phenyl-5-pyrrolidin-1-yl-1H-pyrazole-3-carbonyl)-amino]-3-o-tolyl-propionic acid], the IC50 came out at 15.6 nM.

(Values after US8962671B2, “Amino-substituted 3-heteroaroylamino-propionic acid derivatives and their use as pharmaceuticals” (Sanofi, priority 2011, dated 2015).)
